Reference: patent US8445207B2, “Genes based on thalidomide, valproic acid and methotrexate treatment for screening of drug inducing teratogenicity and screening method using thereof” (priority 2009, dated 2013)

System: JEG-3 (human placental choriocarcinoma cell line)
Assay: Oligo microarray gene expression in drug-treated JEG-3 (Cy5 treated / Cy3 control)
Type: cell-based
Procedure: Thalidomide, valproic acid, and methotrexate were treated to human placental choriocarcinoma cell line at the concentrations determined above (Inhibition concentration: the concentration that can kill approximately 30% of the total cells, that is the concentration of 70% viability, IC30). mRNA was extracted from the drug treated cell line, followed by synthesis of cDNA which was labeled with Cy5. The non-treated control was labeled with Cy3. The fluorescence labeled cDNA was hybridized with 41K (thalidomide), 44K (valproic acid, methotrexate) human whole genome oligomicroarray chips (Agilent, USA), followed by fluorescent image scanning to analyze gene expression patterns (see FIG. 4). Volcano Plot of each substance was also attached. Y axis indicates probability (generally converted by −log 10). X axis indicates differential expression, which is presented by log-ratio.
Total RNA was separated from the treated cell by using trizol reagent (Invitrogen Life Technologies, USA) according to the manufacture's instructions, followed by purification using RNeasy mini kit (Qiagen, USA). Genomic DNA was eliminated during RNA purification using RNase-free DNase set (Qiagen, USA).
30 μg of the total RNA obtained above and 2 μg (1 μg/μl) of oligo (dT) primer were mixed, followed by reaction at 65° C. for 10 minutes. Annealing was performed in ice right after the reaction. Reagents were prepared as shown in Table 1 for reverse transcription of the annealed RNA.
The total RNA separated from the control group JEG-3 cells was labeled with Cy3-dUTP (green) and the total RNA separated from the experiment group JEG-3 cells treated with thalidomide, valproic acid and methotrexate was labeled with Cy5-dUTP (red). At this time, the two samples were mixed and purified by Microcon YM-30 column (Millipore, USA).
Hybridization and washing were performed by the manufacturer's (GenoCheck, Korea) instructions. Particularly, hybridization was performed in a 62° C. oven for 12 hours. As a DNA microarray chip, 44 k whole human genome oligo microarray (Agilent, USA) was used. After washing (2 minutes with 2×SSC/0.1% SDS, three minutes with 1×SSC, 2 minutes with 0.2×SSC), the slide was dried by centrifugation at 800 rpm for 3 minutes.
Hybridization image on the slide was scanned with Genepix 4000B (Axon Instruments, USA). Fluorescence image of the chip on which non-hybridized genes had been washed out was obtained by using laser fluorescence scanner. Green fluorescence image indicates the activity of gene specifically expressed in the control group and red fluorescence image indicates the activity of gene specifically expressed in the experimental group. […] Scanned image was analyzed by using GenePix 4.1 software (Axon Instruments, USA) to calculate gene expression rate.

[1] = out of 21797 (thalidomide), 21921 (valproic acid), 24006 (methotrexate) genes
[2] = treated at IC30, up-regulated gene, (k) common gene which has no function

Q: Which “Ratio of intermediate value, CBS” value (Genbank L00972, drug at IC30) does the source give for CN(Cc1cnc2nc(N)nc(N)c2n1)c1ccc(C(=O)N[C@@H](CCC(=O)O)C(=O)O)cc1 [MTX, methotrexate] here?
A: Its value is 0.47.

Q: What about the “Ratio of intermediate value, ATM” value (Genbank NM_000051, drug at IC30) of the same compound?
A: Its value is 0.48.

Q: What about the “Ratio of intermediate value, KAL1” value (Genbank NM_000216, drug at IC30) of the same compound?
A: The value was 0.43.

Q: And the “Ratio of intermediate value, PMP22” value (Genbank NM_000304, drug at IC30)?
A: Its value is 0.43.

Q: What about the “Ratio of intermediate value, ATR” value (Genbank NM_001184, drug at IC30) of the same compound?
A: The value was 0.41.

Q: What about the “Ratio of intermediate value, PARP1” value (Genbank NM_001618, drug at IC30) of the same compound?
A: Its value is 0.60.

Q: And the “Ratio of intermediate value, AUH” value (Genbank NM_001698, drug at IC30)?
A: Its value is 0.39.

Q: And the “Ratio of intermediate value, CDO1” value (Genbank NM_001801, drug at IC30)?
A: Its value is 0.45.

Q: And the “Ratio of intermediate value, MGMT” value (Genbank NM_002412, drug at IC30)?
A: Its value is 0.48.

Q: And the “Ratio of intermediate value, NTHL1” value (Genbank NM_002528, drug at IC30)?
A: Its value is 0.42.

Q: What about the “Ratio of intermediate value, UNG” value (Genbank NM_003362, drug at IC30) of the same compound?
A: Its value is 0.41.

Q: And the “Ratio of intermediate value, EEF1E1” value (Genbank NM_004280, drug at IC30)?
A: Its value is 0.46.

Q: What about the “Ratio of intermediate value, FEZ1” value (Genbank NM_005103, drug at IC30) of the same compound?
A: Its value is 0.43.

Q: And the “Ratio of intermediate value, BCAT1” value (Genbank NM_005504, drug at IC30)?
A: Its value is 0.12.

Q: And the “Ratio of intermediate value, BCKDK” value (Genbank NM_005881, drug at IC30)?
A: The value was 0.48.

Q: And the “Ratio of intermediate value, POLD2” value (Genbank NM_006230, drug at IC30)?
A: Its value is 0.29.

Q: What about the “Ratio of intermediate value, FARS2” value (Genbank NM_006567, drug at IC30) of the same compound?
A: Its value is 0.46.

Q: What about the “Ratio of intermediate value, POLG2” value (Genbank NM_007215, drug at IC30) of the same compound?
A: The value was 0.45.

Q: What about the “Ratio of intermediate value, ABL1” value (Genbank NM_007313, drug at IC30) of the same compound?
A: The value was 0.49.

Q: What about the “Ratio of intermediate value, LIG3” value (Genbank NM_013975, drug at IC30) of the same compound?
A: Its value is 0.49.

Q: What about the “Ratio of intermediate value, CGI-04” value (Genbank NM_015936, drug at IC30) of the same compound?
A: The value was 0.47.

Q: What about the “Ratio of intermediate value, MAPT” value (Genbank NM_016835, drug at IC30) of the same compound?
A: The value was 0.38.

Q: And the “Ratio of intermediate value, FLJ10514” value (Genbank NM_018122, drug at IC30)?
A: Its value is 0.38.

Q: What about the “Ratio of intermediate value, LGP1” value (Genbank NM_032484, drug at IC30) of the same compound?
A: Its value is 0.49.

Q: What about the “Ratio of intermediate value, PSAT1” value (Genbank NM_058179, drug at IC30) of the same compound?
A: Its value is 0.31.

Q: What about the “Ratio of intermediate value, HARS2” value (Genbank NM_080820, drug at IC30) of the same compound?
A: Its value is 0.26.

Q: What about the “Ratio of intermediate value, DBN1” value (Genbank NM_080881, drug at IC30) of the same compound?
A: Its value is 0.44.

Q: What about the “Ratio of intermediate value, ASNS” value (Genbank NM_133436, drug at IC30) of the same compound?
A: The value was 0.33.

Q: And the “Ratio of intermediate value, ROBO1” value (Genbank NM_133631, drug at IC30)?
A: The value was 0.39.

Q: And the “Ratio of intermediate value, TARSL2” value (Genbank NM_152334, drug at IC30)?
A: The value was 0.36.

Q: And the “Ratio of intermediate value, CNTN4” value (Genbank NM_175607, drug at IC30)?
A: The value was 0.31.

Q: What about the “Ratio of intermediate value, ERCC8” value (Genbank NM_001007233, drug at IC30) of the same compound?
A: The value was 0.41.

Q: What about the “Ratio of intermediate value, RAD50” value (Genbank U63139, drug at IC30) of the same compound?
A: The value was 0.36.

Q: And the “Ratio of intermediate value, VARS2” value (Genbank X59303, drug at IC30)?
A: The value was 0.33.

Q: And the “Ratio of intermediate value, SR140” value (Genbank XM_031553, drug at IC30)?
A: Its value is 0.66.

Q: What about the “Ratio of intermediate value, LOC389173” value (Genbank XM_371677, drug at IC30) of the same compound?
A: The value was 0.27.

Q: And the “genes down-regulated (ratio of intermediate value less than 0.666)” value (JEG-3, drug at IC30, 48 hours)?
A: The value was 6.28%.

Q: What about the “genes up-regulated (ratio of intermediate value more than 1.5)” value (JEG-3, drug at IC30, 48 hours) of the same compound?
A: Its value is 9.5%.

Q: What about the “number of genes down-regulated” value [1] of the same compound?
A: The value was 1508.

Q: What about the “number of genes up-regulated” value [1] of the same compound?
A: The value was 2149.

Q: And the “Ratio of intermediate value, gene ATP10B (AB018258, ATPase, Class V, type 10B)” value [2]?
A: The value was 4.95.

Q: What about the “Ratio of intermediate value, gene BQ186674 (cDNA clone UI-E-EJ1-ajr-f-10-0-UI, Hypothetical gene supported by AF086204)” value [2] of the same compound?
A: Its value is 3.79.

Q: And the “Ratio of intermediate value, gene BX111592 (Transcribed locus, moderately similar to XP_066443.6 PREDICTED: similar to paraneoplastic antigen like 6A)” value [2]?
A: The value was 9.86.

Q: And the “Ratio of intermediate value, gene CGA (NM_000735, Glycoprotein hormones, alpha polypeptide)” value [2]?
A: The value was 8.07.

Q: And the “Ratio of intermediate value, gene COBLL1 (BX649112, COBL-like 1)” value [2]?
A: Its value is 4.89.

Q: What about the “Ratio of intermediate value, gene CYP19A1 (AK023571, Cytochrome P450, family 19, subfamily A, polypeptide 1)” value [2] of the same compound?
A: Its value is 2.72.

Q: And the “Ratio of intermediate value, gene FLJ11017 (AK001879, Hypothetical protein FLJ11017)” value [2]?
A: Its value is 4.69.

Q: What about the “Ratio of intermediate value, gene GLCCI1 (AK126731, Glucocorticoid induced transcript 1)” value [2] of the same compound?
A: The value was 2.84.

Q: What about the “Ratio of intermediate value, gene KIAA0310 (AB002308, KIAA0310)” value [2] of the same compound?
A: Its value is 2.29.

Q: What about the “Ratio of intermediate value, gene MGC27016 (AK125877, Hypothetical protein MGC27016)” value [2] of the same compound?
A: Its value is 1.52.

Q: What about the “Ratio of intermediate value, gene NCOA3 (NM_181659, Nuclear receptor coactivator 3)” value [2] of the same compound?
A: Its value is 2.12.

Q: What about the “Ratio of intermediate value, gene RGS2 (BC042755, Regulator of G-protein signalling 2, 24 kDa)” value [2] of the same compound?
A: Its value is 9.24.

Q: And the “Ratio of intermediate value, gene SIAT7A (BC063830, ST6 (alpha-N-acetyl-neuraminyl-2,3-beta-galactosyl-1,3)-N-acetylgalactosaminide alpha-2,6-sialyltransferase 1)” value [2]?
A: Its value is 15.01.

Q: And the “Ratio of intermediate value, gene SIAT8D (NM_005668, ST8 alpha-N-acetyl-neuraminide alpha-2,8-sialyltransferase 4)” value [2]?
A: Its value is 1.82.

Q: What about the “Ratio of intermediate value, gene SLC7A8 (Y18483, Solute carrier family 7 (cationic amino acid transporter, y+ system), member 8)” value [2] of the same compound?
A: The value was 3.76.

Q: What about the “Ratio of intermediate value, gene SLC40A1 (AK023574, Solute carrier family 40 (iron-regulated transporter), member 1)” value [2] of the same compound?
A: Its value is 3.06.

Q: And the “Ratio of intermediate value, gene TFCP2L4 (BC036890, Grainyhead-like 3 (Drosophila))” value [2]?
A: Its value is 4.11.

Q: What about the “Ratio of intermediate value, gene TTF2 (AB209845, Transcription termination factor, RNA polymerase II)” value [2] of the same compound?
A: Its value is 1.94.

Q: And the “Ratio of intermediate value, gene TUBB3 (AK122757, Tubulin, beta 3)” value [2]?
A: The value was 7.85.

Q: What about the “Ratio of intermediate value, gene TncRNA (AF001893, Trophoblast-derived noncoding RNA)” value [2] of the same compound?
A: Its value is 2.11.
